Measured values from patent publication US12128035B2, “Activating pyruvate kinase R” (Novo Nordisk Health Care AG, priority 2021, dated 2024).
“Also recorded” adds a separate entry of the source.

How the values were obtained:
sickle RBCs = assay: Phase 1: Lorrca Oxygenscan in SCD patients; type: in vivo, human; settings: SCD single 700 mg, Post-dose (24 hours), median (range)
Description: In this study, SAD/MAD cohorts are randomized (3 to 1) to receive Compound 1 or placebo (P). Compound 1 was evaluated first in 4 healthy SAD cohorts and 4 healthy MAD (14-day dosing period) cohorts. Based on the safety, and PK/PD profile from HS, Compound 1 is then evaluated in 1 SCD SAD cohort and 2 SCD MAD cohorts. Specifically, based on the safety and pharmacokinetic/pharmacodynamics (PK/PD) profile in healthy volunteer studies, Compound 1 is evaluated in patients (pts) with SCD, first in a single dose (SD or SAD) cohort and then in multiple-dose (MD or MAD) cohorts (14-day and 12-week). Safety assessments include AEs, vital signs, ECGs and laboratory parameters. PK/PD blood sampling was performed on Day 1 (SAD/MAD) and Day 14 (MAD) and up to 72 h after the last dose and at the end-of-study visit. PD parameters included 2,3-DPG, ATP, and p50 in all cohorts with additional PD studies (including oxygen scan) performed only in the SCD cohorts. PD parameters included 2,3-DPG, ATP, p50, RBC deformability with controlled deoxygenation and reoxygenation (Lorrca® oxygen scan) and varying osmolality (Lorrca® osmoscan)). […]
Functional evaluation of RBCs was performed using Laser-Optical Rotational Red Cell Analyzer (Lorrca®) technology (RR Mechatronics, Zwaag, The Netherlands). […] In brief, the Oxygenscan allows for the measurement and visualisation of RBC elongation in shear stress in an oxygen gradient, during deoxygenation and re-oxygenation, expressed as the elongation index (EI). […] Evaluated Osmoscan parameters included: EImax; Omin (osmolality at ELmax; hypotonic region), which corresponds to the value of the hypotonic osmolality at which 50% of the cells hemolyse in an osmotic fragility assay and provides information on the initial surface-to-volume ratio of the RBCs; and Ohyper (osmolality corresponding to 50% of the EImax; hypertonic region), which correlates with the initial intracellular viscosity of the cell sample. […]
The effects of a single dose of Compound 1 (700 mg) versus placebo on oxygen scan, oxygen affinity (p50), and osmoscan in SCD patients were evaluated. […]

aromatase = target: T1, aromatase (Homo sapiens, UniProt P11511); assay: Aromatase inhibition; settings: clinical trials and non-clinical testing
T1 construct: endogenous in cells; host or cells: H295R adreno-cortical carcinoma cells; healthy human subjects in vivo
T1 sequence (P11511 1-503): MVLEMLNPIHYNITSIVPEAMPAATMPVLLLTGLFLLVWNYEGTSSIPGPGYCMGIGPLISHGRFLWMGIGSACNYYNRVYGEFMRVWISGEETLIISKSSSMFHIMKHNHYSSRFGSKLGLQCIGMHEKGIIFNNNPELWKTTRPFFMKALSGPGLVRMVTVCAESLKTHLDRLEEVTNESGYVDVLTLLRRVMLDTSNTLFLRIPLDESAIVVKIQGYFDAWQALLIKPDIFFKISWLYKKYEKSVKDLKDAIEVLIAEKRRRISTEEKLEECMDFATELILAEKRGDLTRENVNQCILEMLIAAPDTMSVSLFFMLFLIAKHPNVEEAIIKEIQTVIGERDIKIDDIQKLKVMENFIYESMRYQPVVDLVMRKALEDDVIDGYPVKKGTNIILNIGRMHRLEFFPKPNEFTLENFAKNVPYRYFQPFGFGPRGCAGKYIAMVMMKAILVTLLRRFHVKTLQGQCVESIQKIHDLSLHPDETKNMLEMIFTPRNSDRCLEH
Excerpt: Aromatase is an enzyme encoded by the CYP19A1 gene. It is located in the endoplasmic reticulum of estrogen-producing cells and catalyzes the rate-limiting step in the conversion of androgens to estrogens in many tissues. Aromatase is a cytochrome P-450 hemoprotein-containing enzyme complex that catalyzes the rate-limiting step in the production of estrogens, i.e. the conversion of androstenedione and testosterone, via three hydroxylation steps, to estrone and estradiol. Aromatase activity is present in many tissues, such as the ovaries, adipose tissue, muscle, liver, breast tissue, and in malignant breast tumors. The main sources of circulating estrogens are the ovaries in premenopausal women and adipose tissue in post-menopausal women. Aromatase catalyzes the conversion of androgens to estrone (E1), which is further converted to the potent estrogen estradiol (E2) by the enzyme 17β-HSD type 1 in the granulosa cell.
Aromatase is a key enzyme in the steroidogenic pathway that catalyzes the conversion of androgens, including testosterone, into estradiol. […]
Effects on circulating levels of estradiol and testosterone in male and female healthy subjects receiving Compound 1 or placebo for a treatment period of 14 days were evaluated. […] Testosterone and estradiol levels were assessed prior to dosing (baseline), and then on days 8, 14 and 17.

## O=C([C@H](CO)c1ccccc1)N1CC2=C(C1)CN(S(=O)(=O)c1cnc3c(c1)OCCO3)C2 (single isomer, unassigned) [Compound 1]
Sickle RBCs; pre-dose 0.193 (0.16, 0.21)
  EImin (Oxygenscan): 0.296 (0.26, 0.38)
Sickle RBCs; pre-dose 0.445 (0.41, 0.51)
  EImax (Oxygenscan): 0.451 (0.42, 0.52)
Sickle RBCs; pre-dose 35.4 (27.3, 38.8)
  POS (Oxygenscan): 24.0 (17.9, 31.8)
aromatase
  aromatase inhibition: has not shown evidence of inhibition of aromatase; also recorded: absence of aromatase inhibition
